Laboratory results from patent publication US12329815B2, “Acoustic driven drug delivery systems” (UNIVERSITY OF OTAGO, priority 2015, dated 2025).

Key:
[1] = tested on: entorhinal cortex (EC) slices; experiment: Low Mg2+ (Mg2+-free) in vitro model of epilepsy: frequency of epileptiform events; assay type: cell-based, Wistar rats; details: 10 μM non-liposomal, 15 min wash-in; n=4 slices
Excerpt: In the ‘low Mg^2+’ in vitro model of epilepsy the susceptibility of the entorhinal cortex (EC) to seizure activity is exploited by acutely bathing EC slices in Mg^2+-free artificial cerebrospinal fluid (ACSF). The removal of Mg^2+ from the extracellular environment consequently removes the normal Mg^2+ block on the N-Methyl-D-aspartic acid (NMDA) receptor. […]
Recordings from the tissue chamber were made using Ag/AgCl pellet electrodes (Harvard Apparatus, UK). The signal was collected on a chart recorder (Semat, UK) or digitally recorded (Neurolog, UK). […] Digitally recorded signals were amplified (×100 gain) and high-pass filtered (8.9 Hz cut-off). […] Drugs were applied via the perfusate (Mg^2+-free ACSF) and the frequency of epileptiform events (SLEs or LRDs) were measured before and during drug application. […]
To determine the effect of control drug solutions on the frequency of epileptiform activity, the frequency of events 30 min (in most cases) prior to drug application (pre-drug) was compared with the frequency of events during the wash-in period (15 min). For the drug delivered in liposomes, in addition to the frequency of pre-drug events and during wash-in, the frequency of events during 30 min immediately after the application of the ultrasound trigger was also quantified. […]

[2] = in vivo; cited from earlier work

Row | SMILES | reduction in epileptiform activity [1] | fraction crossing the blood-brain barrier [2]
1 | NCc1cc(O)no1 [muscimol, 5-(aminomethyl)-isoxazol-3-ol] | 85%±14 | 
2 | N[C@@H](Cc1ccc(O)c(O)c1)C(=O)O [levodopa] |  | 5-10%
